Data on one molecule can be found in patent publication US6388127B1, “Process for preparing cyclic thioamides” (Pfizer INC, priority 1999, dated 2002).

`O=C1CSCCN1c1ccc(Cl)c(Cl)c1` [Example 1, 4-(3,4-Dichloro-phenyl)-thiomorpholin-3-one]: the melting point lay in the range of 81 to 83 °C.

Broadly, the melting point is the temperature, or range, at which the solid turns liquid.
